Assay results: US7867492B2, “Compounds for hedgehog pathway blockade in proliferative disorders, including hematopoietic malignancies” (The John Hopkins University, priority 2007, dated 2011)

Legend:
Hh pathway [1] = format: cell-based
K-ras pathway = format: cell-based
Wnt pathway = test: Wnt reporter (7×TCF/LEF-luciferase) in 3T3 cells; format: cell-based; conditions: increasing concentrations, presence or absence of Wnt3a-conditioned medium
Text: 3T3 cells were transfected with a Wnt reporter (7×TCF/LEF-luciferase) and treated with increasing concentrations of ATO in the presence or absence of Wnt3a-conditioned medium.
To further assess the specificity of the arsenic effect on Hedgehog pathway signaling, 3T3 cells were transfected with a Wnt reporter (7×TCF/LEF-luciferase) and treated with increasing concentrations of ATO in the presence or absence of Wnt3a-conditioned medium.

Gli = test: Hh reporter in 3T3 cells cotransfected with SmoA1, Gli2 or Gli1; format: cell-based; conditions: presence or absence of ShhN
[2] = tested on: medulloblastoma from Ptch+/−p53−/− mice; test: Hh activity-induced medulloblastoma allografts in athymic nude mice; format: in vivo; conditions: daily intraperitoneal injection
Method: FIG. 7 is a pictorial and a graphical diagram showing that ATO inhibits growth of Hh activity-induced medulloblastoma allografts in nude mice. Primary medulloblastoma from Ptch+/−p53−/− mice were dissected and injected into athymic nude mice. The mice were injected daily with either control PBS or 3 different doses of ATO intraperitoneally.
The activity of ATO was then tested in vivo in a well-established model of a tumor that is dependent on Hh pathway activity for growth. In this model, primary medulloblastoma cells from Ptch+/−p53−/− mice were dissected and injected into athymic nude mice. The mice were then injected daily with either control PBS or 3 different doses of ATO intra-peritoneally.

Hh pathway [3] = test: ATO combined with cyclopamine, 8×Gli-luciferase reporter in 3T3 cells; format: cell-based; conditions: cyclopamine at fixed concentrations of […] and 0.125 μM, presence of ShhN

## O=[As][O-].[Na+] [NaAsO2]
Hh pathway [1]
  Hh signaling (reporter): inhibits Hh signaling
K-ras pathway
  K-ras pathway activity (SRE-luciferase reporter): did not inhibit, and in fact stimulated the K-ras pathway

## arsenic trioxide [ATO]
Hh pathway [1]; NIH3T3 cells, increasing concentrations, presence or absence of ShhN-conditioned medium
  Hh pathway activity (8×Gli-luciferase reporter): inhibits Hh pathway in a dose-dependent manner
Wnt pathway
  Wnt pathway activity (7×TCF/LEF-luciferase reporter): does not inhibit the Wnt pathway
Gli
  Hh reporter activity induced by SmoA1, Gli2 or Gli1 over-expression: dramatically inhibited reporter activity
[2]; 3 different doses, athymic nude mice
  Tumor allograft growth: suppressed tumor allograft growth in a concentration dependent manner
[2]; highest concentration tested
  Tumor allograft growth at the highest concentration tested: complete growth suppression
Hh pathway [3]
  Effect of ATO on Hh pathway when combined with cyclopamine: significantly improved effect of ATO at lower concentrations
